Molecular target: T1, GlyT1 (Homo sapiens, UniProt P48067)
T1 construct: expressed in transfected cells
T1 sequence (P48067 1-706): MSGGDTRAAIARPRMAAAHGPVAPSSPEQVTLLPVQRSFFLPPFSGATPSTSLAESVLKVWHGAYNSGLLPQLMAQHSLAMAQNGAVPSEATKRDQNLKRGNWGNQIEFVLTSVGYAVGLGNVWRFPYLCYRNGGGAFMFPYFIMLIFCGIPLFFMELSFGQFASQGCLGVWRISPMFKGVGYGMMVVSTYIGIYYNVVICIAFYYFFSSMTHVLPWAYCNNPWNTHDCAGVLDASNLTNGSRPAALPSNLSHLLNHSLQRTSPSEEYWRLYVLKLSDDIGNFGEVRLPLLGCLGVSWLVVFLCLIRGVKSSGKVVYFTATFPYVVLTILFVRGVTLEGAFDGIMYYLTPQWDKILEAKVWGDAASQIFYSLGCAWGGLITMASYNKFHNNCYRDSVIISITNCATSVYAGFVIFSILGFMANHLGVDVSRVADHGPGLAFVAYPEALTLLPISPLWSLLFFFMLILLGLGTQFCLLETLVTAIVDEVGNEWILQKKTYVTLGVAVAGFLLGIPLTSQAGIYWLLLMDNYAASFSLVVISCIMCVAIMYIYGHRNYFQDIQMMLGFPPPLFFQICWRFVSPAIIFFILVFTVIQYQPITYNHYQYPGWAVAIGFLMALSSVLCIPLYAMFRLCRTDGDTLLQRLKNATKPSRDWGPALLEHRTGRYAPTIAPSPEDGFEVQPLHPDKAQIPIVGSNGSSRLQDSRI
Assay: Glycine Transporter 1 (GlyT1) uptake assay, scintillation proximity assay of [14C]-glycine uptake
Format: cell-based
Conditions: SPA, four parameter logistic fit, read-out: GlyT1 (pIC50) (converted)
Procedure, shortened: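 IC50 values derive from four-parameter logistic curves fitted to dose-response data. Uptake of [14C]-glycine measured in scintillation proximity format.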

Structure (SMILES)	IC50
C[C@H](Oc1ccc(C#N)cc1C(=O)N1Cc2cn(CC3CC3(F)F)nc2C1)C(F)(F)F (stereo partly drawn) [Example 457, 3-{2-[(2 2-Difluorocyclopropyl)methyl]-2H 4H 5H 6H-pyrrolo[3,4-c]pyrazole-5-carbonyl}-4-{[(2S)-1 1 1-trifluoropropan-2-yl]oxy}benzonitrile]	100 to 1000 nM
C[C@H](Oc1ccc(C#N)cc1C(=O)N1Cc2cnn(C3CCOCC3)c2C1)C(F)(F)F [Example 458, 3-[1-(Oxan-4-yl)-1H 4H 5H 6H-pyrrolo[3,4-c]pyrazole-5-carbonyl]-4-{[(2S)-1 1 1-trifluoropropan-2-yl]oxy}benzonitrile]	> 10000 nM
CC(C)Oc1ccc(C#N)cc1C(=O)N1Cc2cn(-c3ccnc(C4CCC4)c3)nc2C1 [Example 459, 3-[2-(2-Cyclobutylpyridin-4-yl)-2H 4H 5H 6H-pyrrolo[3,4-c]pyrazole-5-carbonyl]-4-(propan-2-yloxy)benzonitrile]	< 100 nM
C[C@H](Oc1ccc(C#N)cc1C(=O)N1Cc2cn(-c3ccnc(C4CCC4)c3)nc2C1)C(F)(F)F [Example 460, 3-[2-(2-Cyclobutylpyridin-4-yl)-2H 4H 5H 6H-pyrrolo[3,4-c]pyrazole-5-carbonyl]-4-{[(2S)-1 1 1-trifluoropropan-2-yl]oxy}benzonitrile]	< 100 nM
C[C@H](Oc1ccc(C#N)cc1C(=O)N1Cc2cn(-c3ccc(C#N)nc3)nc2C1)C(F)(F)F [Example 465, 5-[5-(5-Cyano-2-{[(2S)-1 1 1-trifluoropropan-2-yl]oxy}benzoyl)-2H 4H 5H 6H-pyrrolo[3,4-c]pyrazol-2-yl]pyridine-2-carbonitrile]	100 to 1000 nM
CC(C)Oc1ccc(C#N)cc1C(=O)N1Cc2cn(-c3ccc(C#N)nc3)nc2C1 [Example 466]	100 to 1000 nM
C[C@H](Oc1ccc(C#N)cc1C(=O)N1Cc2cn(-c3ccnc(C#N)c3)nc2C1)C(F)(F)F [Example 467, 4-[5-(5-Cyano-2-{[(2S)-1 1 1-trifluoropropan-2-yl]oxy}benzoyl)-2H 4H 5H 6H-pyrrolo[3,4-c]pyrazol-2-yl]pyridine-2-carbonitrile]	100 to 1000 nM
CC(C)Oc1ccc(C#N)cc1C(=O)N1Cc2cn(-c3ccnc(C#N)c3)nc2C1 [Example 468, 4-{5-[5-Cyano-2-(propan-2-yloxy)benzoyl]-2H 4H 5H 6H-pyrrolo[3,4-c]pyrazol-2-yl}pyridine-2-carbonitrile]	100 to 1000 nM
C[C@H](Oc1ccc(S(C)(=O)=O)cc1C(=O)N1Cc2cn(C3CCC(F)(F)CC3)nc2C1)C(F)(F)F [Example 471, 2-(4 4-Difluorocyclohexyl)-5-(5-methanesulfonyl-2-{[(2S)-1 1 1-trifluoropropan-2-yl]oxy}benzoyl)-2H 4H 5H 6H-pyrrolo[3,4-c]pyrazole]	< 100 nM
C[C@H](Oc1ccc(C#N)cc1C(=O)N1Cc2cn(C3CCC(F)(F)CC3)nc2C1)C(F)(F)F [Example 472, 3-[2-(4 4-Difluorocyclohexyl)-2H 4H 5H 6H-pyrrolo[3,4-c]pyrazole-5-carbonyl]-4-{[(2S)-1 1 1-trifluoropropan-2-yl]oxy}benzonitrile]	100 to 1000 nM
COc1c(C#N)ccc(OC(C)C(F)(F)F)c1C(=O)N1CCc2nn(-c3ccc(F)cc3)c(C)c2C1 (centres unmarked) [Example 473, 3-[2-(4-Fluorophenyl)-3-methyl-2H 4H 5H 6H 7H-pyrazolo[4,3-c]pyridine-5-carbonyl]-2-methoxy-4-[(1 1 1-trifluoropropan-2-yl)oxy]benzonitrile]	> 10000 nM
COc1c(C#N)ccc(OC(C)C(F)(F)F)c1C(=O)N1Cc2cnn(-c3ccc(F)cc3)c2C(C)(C)C1 (centres unmarked) [Example 474, 3-[1-(4-Fluorophenyl)-7 7-dimethyl-1H 4H 5H 6H 7H-pyrazolo[4,3-c]pyridine-5-carbonyl]-2-methoxy-4-[(1 1 1-trifluoropropan-2-yl)oxy]benzonitrile]	1000 to 10000 nM
COc1c(C#N)ccc(OCC2(C)CC2)c1C(=O)N1CCc2nn(-c3ccc(F)cc3)cc2C1 [Example 475, 3-[2-(4-Fluorophenyl)-2H 4H 5H 6H 7H-pyrazolo[4,3-c]pyridine-5-carbonyl]-2-methoxy-4-[(1-methylcyclopropyl)methoxy]benzonitrile]	> 10000 nM
COc1c(C#N)ccc(OCC2(C(F)(F)F)CC2)c1C(=O)N1CCc2nn(-c3ccc(F)cc3)cc2C1 [Example 476, 3-[2-(4-Fluorophenyl)-2H 4H 5H 6H 7H-pyrazolo[4,3-c]pyridine-5-carbonyl]-2-methoxy-4-{[1-(trifluoromethyl)cyclopropyl]methoxy}benzonitrile]	1000 to 10000 nM
CNC(=O)c1ccc(OC(C)C(F)(F)F)c(C(=O)N2CCc3nn(-c4ccc(F)cc4)cc3C2)c1Cl (centres unmarked) [Example 478, 2-Chloro-3-[2-(4-fluorophenyl)-2H 4H 5H 6H 7H-pyrazolo[4,3-c]pyridine-5-carbonyl]-N-methyl-4-[(1 1 1-trifluoropropan-2-yl)oxy]benzamide]	< 100 nM
COc1c(C(=O)N2CCC2)ccc(OC(C)C(F)(F)F)c1C(=O)N1CCc2nn(-c3ccc(F)cc3)cc2C1 (centres unmarked) [Example 479, 1-{3-[2-(4-Fluorophenyl)-2H 4H 5H 6H 7H-pyrazolo[4,3-c]pyridine-5-carbonyl]-2-methoxy-4-[(1 1 1-trifluoropropan-2-yl)oxy]benzoyl}azetidine]	< 100 nM

The remaining lines, values ahead:

IC50	Structure (SMILES)
< 100 nM	CC(C)Oc1ccc(S(C)(=O)=O)cc1C(=O)N1Cc2cn(CC3CC(F)(F)C3)nc2C1 [Example 461, 2-[(3 3-Difluorocyclobutyl)methyl]-5-[5-methanesulfonyl-2-(propan-2-yloxy)benzoyl]-2H 4H 5H 6H-pyrrolo[3,4-c]pyrazole]
100 to 1000 nM	C[C@H](Oc1ccc(C#N)cc1C(=O)N1Cc2cn(CC3CC(F)(F)C3)nc2C1)C(F)(F)F [Example 462, 3-{2-[(3 3-Difluorocyclobutyl)methyl]-2H 4H 5H 6H-pyrrolo[3,4-c]pyrazole-5-carbonyl}-4-{[(2S)-1 1 1-trifluoropropan-2-yl]oxy}benzonitrile]
< 100 nM	C[C@H](Oc1ccc(S(C)(=O)=O)cc1C(=O)N1Cc2cn(CC3CC(F)(F)C3)nc2C1)C(F)(F)F [Example 463]
< 100 nM	CS(=O)(=O)c1ccc(-c2cccc(F)c2)c(C(=O)N2Cc3cn(CC4CC(F)(F)C4)nc3C2)c1 [Example 464, 2-[(3 3-Difluorocyclobutyl)methyl]-5-[2-(3-fluorophenyl)-5-methanesulfonylbenzoyl]-2H 4H 5H 6H-pyrrolo[3,4-c]pyrazole]
< 100 nM	CS(=O)(=O)c1ccc(-c2cccc(F)c2)c(C(=O)N2Cc3cn(C4CCC(F)(F)CC4)nc3C2)c1 [Example 469, 2-(4 4-Difluorocyclohexyl)-5-[2-(3-fluorophenyl)-5-methanesulfonylbenzoyl]-2H 4H 5H 6H-pyrrolo[3,4-c]pyrazole]
< 100 nM	CC(C)Oc1ccc(S(C)(=O)=O)cc1C(=O)N1Cc2cn(C3CCC(F)(F)CC3)nc2C1 [Example 470, 2-(4 4-Difluorocyclohexyl)-5-[5-methanesulfonyl-2-(propan-2-yloxy)benzoyl]-2H 4H 5H 6H-pyrrolo[3,4-c]pyrazole]
> 10000 nM	CC(C)(Oc1ccc(S(C)(=O)=O)cc1C(=O)N1Cc2cn(-c3ccc(F)cc3)nc2C1)C(F)(F)F [Example 477, 2-(4-Fluorophenyl)-5-{5-methanesulfonyl-2-[(1 1 1-trifluoro-2-methylpropan-2-yl)oxy]benzoyl}-2H 4H 5H 6H-pyrrolo[3,4-c]pyrazole]
